# Assay results taken from PMC7503509, “Polydopamine Linking Substrate for AMPs: Characterisation and Stability on Ti6Al4V” (Materials, 2020).
# Read-outs that look alike come from different tables or passages of the source. No end group written: not given here.
# What was measured:
# [1] = test system: E. coli (I364), P. aeruginosa (PAO1), S. aureus (F77); type: cell-based; settings: 18 h
# Protocol: (§1) The minimum inhibition concentration (MIC) is used to determine the lowest concentration of antimicrobial agent needed to inhibit the visible growth of a bacteria strain after overnight incubation. All the bacteria strains were kindly provided by Dr Mark Webber of the Quadram Institute Bioscience (Norwich, UK; Escherichia coli (E. coli, […]), Pseudomonas aeruginosa (P. aeruginosa, PAO1) and Staphylococcus aureus (S. aureus, […]/NCTC8532)). Lysogen broth (LB broth) and agar were purchased from Sigma-Aldrich, Merck Life Science UK Limited, Dorset, UK. Fresh LB agar culture plates were prepared by pouring ≈10 mL of an autoclaved warm mixture of LB broth (2.5%) and bacteriological agar (1.5%) dissolved in dH2O. The agar plate was streaked and incubated overnight at 36 °C. A single bacterial colony was chosen and grown in 5 mL broth overnight under agitation at 36 °C. Subsequently, 50 μL of LB broth was added to wells 2-12 of a 96-well culture plate. AMPs were diluted to a concentration of 256 μg/mL, added to well 1, and diluted two-fold down to column 11. Column 12 was left empty, with no AMPs added. Then, 50 μL of the diluted overnight bacteria culture was added to the wells and incubated at 36 °C for 18 h to allow bacteria to grow. After incubation, the well plates were examined for bacterial growth and the lowest concentration of AMPs where clear liquid was observed was assumed to be the minimum inhibitory concentration. Three measurements for each peptide and against each type of bacteria were performed and the average values were obtained.
# [2] = test system: Escherichia coli (E. coli, I364); type: cell-based; settings: I364, 18 h
# Protocol: as §1
# [3] = test system: Pseudomonas aeruginosa (P. aeruginosa, PAO1); type: cell-based; settings: PAO1, 18 h
# Protocol: as §1
# [4] = test system: Staphylococcus aureus (S. aureus, F77/NCTC8532); type: cell-based; settings: NCTC8532, 18 h
# Protocol: as §1
# [5] = test system: Staphylococcus aureus (S. aureus, F77/NCTC8532); settings: comparison value for LL-37; cited from earlier work
# Text: Table 3 MIC values for the designed KR12 analogues compared to the LL-37 human cathelicidin. | column: MIC Values (μM) / S. aureus ([…])
# [6] = test system: Escherichia coli (E. coli, I364); settings: comparison value for LL-37; cited from earlier work
# Text: Table 3 MIC values for the designed KR12 analogues compared to the LL-37 human cathelicidin. | column: MIC Values (μM) / E. coli ([…])
# [7] = test system: E. coli (I364), P. aeruginosa (PAO1), S. aureus (F77); settings: mean of the literature values for LL-37; cited from earlier work
# Text: Table 3 MIC values for the designed KR12 analogues compared to the LL-37 human cathelicidin. | column: MIC Values (μM) / Geometric Mean
# [8] = test system: Pseudomonas aeruginosa (P. aeruginosa, PAO1); settings: comparison value for LL-37; cited from earlier work
# Text: Table 3 MIC values for the designed KR12 analogues compared to the LL-37 human cathelicidin. | column: MIC Values (μM) / P. aeruginosa (PAO1)
Substance,MIC Values Geometric Mean [1] [µM],MIC Values E. coli (I364) [2] [µM],MIC Values P. aeruginosa (PAO1) [3] [µM],MIC Values S. aureus (F77) [4] [µM],MIC Values S. aureus (F77) [5] [µM],MIC Values E. coli (I364) [6] [µM],MIC Values Geometric Mean [7] [µM],MIC Values P. aeruginosa (PAO1) [8] [µM]
KIRVQRIKDFLR [KR12/32],13.33,4,4,32,,,,
KIRVRIKFR [KR12/32-5911],3.33,4,4,2,,,,
"KRIVQRIKDFLR [KR12, reference compound]",4.0,2,2,8,,,,
KRIVRIKFR [KR12-5911],3.5,0.5,2,8,,,,
"LL-37: human cathelicidin, native peptide of KR12",,,,,4,8,6.67,8
